Test results published in US7012144B2, “Quinolone carboxylic acid derivatives” (Korea Research Institute of Chemical Technology, priority 2001, dated 2006).
≈ marks a conversion by molar mass, not a printed value. Like-named read-outs stand apart in the source and are kept apart here.

Assays:
gyrase of E. coli = target: T1, gyrase of E. coli (Escherichia coli, UniProt P0AES4+P0AES6); test: Inhibition of the enzyme activity of gyrase; format: biochemical; conditions: concentration to inhibit the enzyme activity of gyrase of E. coli
T1 construct: gyrase purified from of E. coli; host or cells: E. coli
T1 sequence (P0AES4 whole entry, one chain of several): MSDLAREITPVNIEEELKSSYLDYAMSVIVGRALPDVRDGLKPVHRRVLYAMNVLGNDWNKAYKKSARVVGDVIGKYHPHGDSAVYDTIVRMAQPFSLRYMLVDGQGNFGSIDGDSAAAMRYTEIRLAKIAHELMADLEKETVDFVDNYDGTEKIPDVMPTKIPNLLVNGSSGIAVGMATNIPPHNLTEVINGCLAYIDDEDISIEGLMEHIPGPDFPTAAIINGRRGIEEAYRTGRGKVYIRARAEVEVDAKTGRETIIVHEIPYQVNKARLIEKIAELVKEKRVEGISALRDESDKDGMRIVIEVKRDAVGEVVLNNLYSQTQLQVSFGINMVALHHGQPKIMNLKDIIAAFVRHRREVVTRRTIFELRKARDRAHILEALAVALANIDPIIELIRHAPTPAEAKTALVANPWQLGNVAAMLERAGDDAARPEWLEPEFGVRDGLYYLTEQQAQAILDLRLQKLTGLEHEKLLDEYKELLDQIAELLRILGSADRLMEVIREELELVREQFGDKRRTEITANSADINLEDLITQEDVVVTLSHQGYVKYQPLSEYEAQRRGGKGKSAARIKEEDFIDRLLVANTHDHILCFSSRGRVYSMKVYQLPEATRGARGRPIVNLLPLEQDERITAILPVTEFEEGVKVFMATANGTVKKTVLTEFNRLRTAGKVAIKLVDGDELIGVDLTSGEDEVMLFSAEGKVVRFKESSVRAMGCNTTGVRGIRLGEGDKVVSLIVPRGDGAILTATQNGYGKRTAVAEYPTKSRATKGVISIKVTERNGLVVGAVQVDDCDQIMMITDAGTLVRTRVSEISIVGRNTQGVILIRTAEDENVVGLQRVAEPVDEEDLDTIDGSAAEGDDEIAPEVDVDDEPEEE
Method: (§1) Selectivity indexes of the compounds of the present invention and control compounds were measured using gyrase purified from of E. coli and calf thymus topoisomerase II obtained from Topogen. Co.
(§2) The selectivity index (S.I.) was calculated by the equation 1. [formula] wherein, IC100, Topo II is the concentration of a compound to inhibit the enzyme activity of topoisomerase II and IC100, Gyrase is the concentration of a compound to inhibit the enzyme activity of gyrase of E. coli.

Escherchia coli TEM = test: Antibacterial activity in vitro (MIC, two-fold dilution, Muller Hinton agar); format: cell-based; conditions: 10^7 CFU/ml, 37° C., 18 hours
Method: (§3) The MIC values were determined employing a two-fold dilution method and Muller Hinton agar medium. Each of the Hoechst 345 standard strains having the concentration of 10^7CFU (colony forming unit)/ml was inoculated onto the medium, and incubated at 37° C. for 18 hours.

[1] = test system: Pseudomonas aeruginosa 1592E; test: as above; format: cell-based; conditions: 10^7 CFU/ml, 37° C., 18 hours
Method: as §3

[2] = test system: Streptococcus pyogenes A 77; test: as above; format: cell-based
Method: as §3

Escherchia coli 1507E = test: as above; format: cell-based; conditions: 10^7 CFU/ml, 37° C., 18 hours
Method: as §3

Escherchia coli DC0 = test: as above; format: cell-based
Method: as §3

[3] = test system: Staphylococcus aureus SG 511; test: as above; format: cell-based; conditions: 37° C., 18 hours
Method: as §3

Salmonella typhymurium = test: as above; format: cell-based; conditions: 10^7 CFU/ml, 37° C., 18 hours
Method: as §3

[4] = test system: Staphylococcus aureus 285; test: as above; format: cell-based
Method: as §3

[5] = test system: Streptococcus pyogenes A 308; test: as above; format: cell-based; conditions: 37° C., 18 hours
Method: as §3

[6] = test system: Pseudomonas aeruginosa 1771M; test: as above; format: cell-based
Method: as §3

[7] = test system: Staphylococcus aureus 503; test: as above; format: cell-based; conditions: 10^7 CFU/ml, 37° C., 18 hours
Method: as §3

Escherchia coli 078 = test: as above; format: cell-based; conditions: 10^7 CFU/ml, 37° C., 18 hours
Method: as §3

[8] = test system: Pseudomonas aeruginosa 9027; test: as above; format: cell-based; conditions: 10^7 CFU/ml, 37° C., 18 hours
Method: as §3

[9] = test system: Streptococcus faecium MD 8b; test: as above; format: cell-based; conditions: 10^7 CFU/ml, 37° C., 18 hours
Method: as §3

Escherchia coli DC2 = test: as above; format: cell-based
Method: as §3

[10] = test system: Pseudomonas aeruginosa 1771; test: as above; format: cell-based; conditions: 10^7 CFU/ml, 37° C., 18 hours
Method: as §3

Klebsiella oxytoca 1522E = test: as above; format: cell-based; conditions: 10^7 CFU/ml, 37° C., 18 hours
Method: as §3

Klebsiella oxytoca 1082E = test: as above; format: cell-based; conditions: 10^7 CFU/ml, 37° C., 18 hours
Method: as §3

[11] = test system: calf thymus topoisomerase II; test: Inhibition of the enzyme activity of topoisomerase II; format: biochemical; conditions: concentration to inhibit the enzyme activity of calf thymus topoisomerase II
Method: as §1, §2

Enterobacter cloacae P99 = test: Antibacterial activity in vitro (MIC, two-fold dilution, Muller Hinton agar); format: cell-based; conditions: 10^7 CFU/ml, 37° C., 18 hours
Method: as §3

[12] = test system: Enterobacter cloacae 1321E; test: as above; format: cell-based; conditions: 10^7 CFU/ml, 37° C., 18 hours
Method: as §3

[13] = SG511, 10^7 CFU/ml, read-out: MIC
[14] = A308, 10^7 CFU/ml, read-out: MIC
[15] = Pseudomonas aeruginosa, 1771M, 18 h
[16] = Enterococcus faecium, MD8B, read-out: MIC
[17] = Streptococcus pyogenes A 77, 10^7 CFU/ml, 37° C., 18 hours
[18] = Escherchia coli DC0, 10^7 CFU/ml, 37° C., 18 hours
[19] = Staphylococcus aureus 285, 10^7 CFU/ml, 37° C., 18 hours
[20] = Pseudomonas aeruginosa 1771M, 10^7 CFU/ml, 37° C., 18 hours
[21] = Escherchia coli DC2, 10^7 CFU/ml, 37° C., 18 hours

Compound	IC100, Gyrase (gyrase of E. coli)	MIC (Escherchia coli TEM; read-out: MIC)	MIC ([1]; read-out: MIC)	MIC (Escherchia coli 1507E; read-out: MIC)	MIC (Escherchia coli DC0; 18 h)	MIC [3, 13]	MIC (Salmonella typhymurium; read-out: MIC)	MIC [5, 14]	MIC [6, 15]	MIC ([7]; read-out: MIC)	MIC (Escherchia coli 078; read-out: MIC)	MIC ([8]; read-out: MIC)	MIC [9, 16]	MIC ([10]; read-out: MIC)	MIC (Klebsiella oxytoca 1522E; read-out: MIC)	MIC (Klebsiella oxytoca 1082E; read-out: MIC)	IC100, Topo II [11]	MIC (Enterobacter cloacae P99)	MIC (Escherchia coli TEM)	MIC [1]	other results
O=C(O)c1cn(C2CC2)c2cc(N3CCNCC3)c(F)cc2c1=O [Ciprofloxacin, 1-cyclopropyl-6-fluoro-7-(piperazin-1-yl)-4-oxoquinoline-3-carboxylic acid, reference compound]	0.5 µg/mL	0.007 µg/mL (≈ 0.0211 µM)	0.195 µg/mL (≈ 0.589 µM)	0.007 µg/mL (≈ 0.0211 µM)	0.195 µg/mL (≈ 0.589 µM)	0.195 µg/mL (≈ 0.589 µM)	0.007 µg/mL (≈ 0.0211 µM)	3.12 µg/mL (≈ 9.43 µM)	0.049 µg/mL (≈ 0.148 µM)	0.391 µg/mL (≈ 1.18 µM)	0.004 µg/mL (≈ 0.0121 µM)	0.195 µg/mL (≈ 0.589 µM)	0.391 µg/mL (≈ 1.18 µM)	0.195 µg/mL (≈ 0.589 µM)	0.013 µg/mL (≈ 0.0392 µM)	< 0.002 µg/mL	500 µg/mL	–	–	–	MIC ([2]; Streptococcus pyogenes, A77, 18 h): 0.781 µg/mL (≈ 2.36 µM); MIC ([4]; Staphylococcus aureus, 285, 18 h): 0.781 µg/mL (≈ 2.36 µM); MIC (Escherchia coli DC2; 18 h): 0.049 µg/mL (≈ 0.148 µM)
COc1c(N2CCC(CN)(c3ccccn3)C2)c(F)cc2c(=O)c(C(=O)O)cn(C3CC3)c12 (stereo not shown) [Compound 3, 1-cyclopropyl-6-fluoro-8-methoxy-7-[{3-aminomethyl-3-(pyridin-2-yl)pyrrolidin}-1-yl]-4-oxo-1,4-dihydroquinolin-3-carboxylic acid]	0.2 µg/mL	–	–	–	–	–	–	–	–	–	–	–	–	–	–	–	1,000 μg/ml	0.007 µg/mL (≈ 0.0155 µM)	0.007 µg/mL (≈ 0.0155 µM)	0.195 µg/mL (≈ 0.431 µM)	MIC [2, 17]: 0.007 µg/mL (≈ 0.0155 µM); MIC (Escherchia coli 1507E): 0.007 µg/mL (≈ 0.0155 µM); MIC (Escherchia coli DC0; [18]): 0.049 µg/mL (≈ 0.108 µM); MIC ([3]; 10^7 CFU/ml): 0.007 µg/mL (≈ 0.0155 µM); MIC (Salmonella typhymurium): 0.007 µg/mL (≈ 0.0155 µM); MIC [4, 19]: 0.013 µg/mL (≈ 0.0287 µM); MIC ([5]; 10^7 CFU/ml): 0.013 µg/mL (≈ 0.0287 µM); MIC [6, 20]: 0.098 µg/mL (≈ 0.217 µM); MIC [7]: 0.007 µg/mL (≈ 0.0155 µM); MIC (Escherchia coli 078): <0.002 µg/mL; MIC [8]: 0.195 µg/mL (≈ 0.431 µM); MIC [9]: 0.007 µg/mL (≈ 0.0155 µM); MIC (Escherchia coli DC2; [21]): 0.013 µg/mL (≈ 0.0287 µM); MIC [10]: 0.098 µg/mL (≈ 0.217 µM); MIC (Klebsiella oxytoca 1522E): 0.013 µg/mL (≈ 0.0287 µM); MIC (Klebsiella oxytoca 1082E): <0.002 µg/mL; MIC [12]: <0.002 µg/mL
COc1c(N2CCC(N)(c3ccncc3)C2)c(F)cc2c(=O)c(C(=O)O)cn(C3CC3)c12 (stereo not shown) [Compound 11, 1-cyclopropyl-6-fluoro-8-methoxy-7-[{3-amino-3-(pyridin-4-yl)pyrrolidin}-1-yl]-4-oxo-1,4-dihydroquinolin-3-carboxylic acid]	0.4 µg/mL	–	–	–	–	–	–	–	–	–	–	–	–	–	–	–	1,000 μg/ml	0.004 µg/mL (≈ 0.00912 µM)	0.007 µg/mL (≈ 0.016 µM)	0.195 µg/mL (≈ 0.445 µM)	MIC [2, 17]: 0.013 µg/mL (≈ 0.0296 µM); MIC (Escherchia coli 1507E): 0.013 µg/mL (≈ 0.0296 µM); MIC (Escherchia coli DC0; [18]): 0.049 µg/mL (≈ 0.112 µM); MIC ([3]; 10^7 CFU/ml): 0.013 µg/mL (≈ 0.0296 µM); MIC (Salmonella typhymurium): 0.007 µg/mL (≈ 0.016 µM); MIC [4, 19]: 0.013 µg/mL (≈ 0.0296 µM); MIC ([5]; 10^7 CFU/ml): 0.025 µg/mL (≈ 0.057 µM); MIC [6, 20]: 0.098 µg/mL (≈ 0.224 µM); MIC [7]: 0.007 µg/mL (≈ 0.016 µM); MIC (Escherchia coli 078): <0.002 µg/mL; MIC [8]: 0.195 µg/mL (≈ 0.445 µM); MIC [9]: 0.025 µg/mL (≈ 0.057 µM); MIC (Escherchia coli DC2; [21]): 0.013 µg/mL (≈ 0.0296 µM); MIC [10]: 0.195 µg/mL (≈ 0.445 µM); MIC (Klebsiella oxytoca 1522E): 0.013 µg/mL (≈ 0.0296 µM); MIC (Klebsiella oxytoca 1082E): 0.002 µg/mL (≈ 0.00456 µM); MIC [12]: 0.002 µg/mL (≈ 0.00456 µM)
CC1CN(c2c(F)c(N)c3c(=O)c(C(=O)O)cn(C4CC4)c3c2F)CC(C)N1 (stereo not shown) [Sparfloxacin, 1-cyclopropyl-5-amino-6,8-difluoro-7-(3,5-dimethylpiperazin-1-yl)-4-oxoquinoline-3-carboxylic acid, reference compound]	1.0 µg/mL	0.013 µg/mL (≈ 0.0331 µM)	0.781 µg/mL (≈ 1.99 µM)	0.025 µg/mL (≈ 0.0637 µM)	0.195 µg/mL (≈ 0.497 µM)	0.098 µg/mL (≈ 0.25 µM)	0.007 µg/mL (≈ 0.0178 µM)	0.391 µg/mL (≈ 0.996 µM)	0.195 µg/mL (≈ 0.497 µM)	0.049 µg/mL (≈ 0.125 µM)	0.004 µg/mL (≈ 0.0102 µM)	0.781 µg/mL (≈ 1.99 µM)	0.391 µg/mL (≈ 0.996 µM)	0.781 µg/mL (≈ 1.99 µM)	0.025 µg/mL (≈ 0.0637 µM)	< 0.002 µg/mL	500 µg/mL	–	–	–	MIC (Enterobacter cloacae P99; read-out: MIC): 0.007 µg/mL (≈ 0.0178 µM); MIC ([2]; A77, Streptococcus pyogenes A 77, 10^7 CFU/ml, 37° C., 18 hours, read-out: MIC): 0.195 µg/mL (≈ 0.497 µM); MIC ([4]; Staphylococcus aureus 285, 10^7 CFU/ml, 37° C., 18 hours, read-out: MIC): 0.049 µg/mL (≈ 0.125 µM); MIC ([12]; read-out: MIC): 0.004 µg/mL (≈ 0.0102 µM)
